Legend:
Test in all cases: In vitro assay of antibacterial activity (agar dilution MIC)
Format in all cases: cell-based
[1] = system: ESCHERICHIA COLI JUHL; settings: ESCHERICHIA COLI JUHL; BHI agar, 35-37 °C for 20 to 24 hours; unit assumed
Procedure: (§1) Representative compounds of the present invention were assayed in vitro for antibacterial activity as follows: Twelve petri dishes containing successive aqueous dilutions of the test compound mixed with 10 mL of sterilized Brain Heart Infusion (BHI) agar (Difco 0418-01-5) were prepared. Each plate was inoculated with 1:100 (or 1:10 for slow-growing strains, such as Micrococcus and Streptococcus) dilutions of up to 32 different microorganisms, using a Steers replicator block. The inoculated plates were incubated at 35-37 °C for 20 to 24 hours. In addition, a control plate, using BHI agar containing no test compound, was prepared and incubated at the beginning and end of each test.
(§2) An additional plate containing a compound having known susceptibility patterns for the organisms being tested and belonging to the same antibiotic class as the test compound was also prepared and incubated as a further control, as well as to provide test-to-test comparability. Erythromycin A was used for this purpose.
(§3) After incubation, each plate was visually inspected. The minimum inhibitory concentration (MIC) was defined as the lowest concentration of drug yielding no growth, a slight haze, or sparsely isolated colonies on the inoculum spot as compared to the growth control.

[2] = system: STREPTOCOCCUS BOVIS A-5169; settings: STREPTOCOCCUS BOVIS A-5169; BHI agar, 35-37 °C for 20 to 24 hours; unit assumed
Procedure: as §1, §2, §3

[3] = system: ESCHERICHIA COLI SS; settings: ESCHERICHIA COLI SS; BHI agar, 35-37 °C for 20 to 24 hours; unit assumed
Procedure: as §1, §2, §3

[4] = system: ESCHERICHIA COLI DC-2; settings: BHI agar, 35-37 °C for 20 to 24 hours, unit assumed
Procedure: as §1, §2, §3

[5] = system: STAPHYLOCOCCUS AUREUS CMX 642A; settings: BHI agar, 35-37 °C for 20 to 24 hours, unit assumed
Procedure: as §1, §2, §3

[6] = system: MYCOBACTERIUM SMEGMATIS ATCC 114; settings: MYCOBACTERIUM SMEGMATIS ATCC 114; BHI agar, 35-37 °C for 20 to 24 hours; unit assumed
Procedure: as §1, §2, §3

[7] = system: M[…] ATCC 9341; settings: MICROCOCCUS LUTEUS ATCC 9341; BHI agar, 35-37 °C for 20 to 24 hours; unit assumed
Procedure: as §1, §2, §3

[8] = system: STAPHYLOCOCCUS AUREUS NCTC10649M; settings: BHI agar, 35-37 °C for 20 to 24 hours, unit assumed
Procedure: as §1, §2, §3

[9] = system: STAPHYLOCOCCUS EPIDERMIDIS 3519; settings: STAPHYLOCOCCUS EPIDERMIDIS 3519; BHI agar, 35-37 °C for 20 to 24 hours; unit assumed
Procedure: as §1, §2, §3

[10] = system: STAPHYLOCOCCUS AUREUS 1775; settings: BHI agar, 35-37 °C for 20 to 24 hours, unit assumed
Procedure: as §1, §2, §3

[11] = system: STAPHYLOCOCCUS AUREUS CMX 553; settings: BHI agar, 35-37 °C for 20 to 24 hours, unit assumed
Procedure: as §1, §2, §3

[12] = system: M[…] ATCC 4698; settings: MICROCOCCUS LUTEUS ATCC 4698; BHI agar, 35-37 °C for 20 to 24 hours; unit assumed
Procedure: as §1, §2, §3

[13] = system: STAPHYLOCOCCUS AUREUS A5177; settings: BHI agar, 35-37 °C for 20 to 24 hours, unit assumed
Procedure: as §1, §2, §3

[14] = system: STR[…] 508; settings: STREPTOCOCCUS AGALACTIAE CMX 508; BHI agar, 35-37 °C for 20 to 24 hours; unit assumed
Procedure: as §1, §2, §3

[15] = system: STAPHYLOCOCCUS AUREUS ATCC 6538P; settings: BHI agar, 35-37 °C for 20 to 24 hours, unit assumed
Procedure: as §1, §2, §3

[16] = system: STREPTOCOCCUS PYOGENES PIU 2548; settings: STREPTOCOCCUS PYOGENES PIU 2548; BHI agar, 35-37 °C for 20 to 24 hours; unit assumed
Procedure: as §1, §2, §3

[17] = system: CANDIDA ALBICANS CCH 442; settings: BHI agar, 35-37 °C for 20 to 24 hours, unit assumed
Procedure: as §1, §2, §3

[18] = system: STREPTOCOCCUS PYOGENES 930; settings: STREPTOCOCCUS PYOGENES 930; BHI agar, 35-37 °C for 20 to 24 hours; unit assumed
Procedure: as §1, §2, §3

[19] = system: N. ASTEROIDES ATCC 9970; settings: BHI agar, 35-37 °C for 20 to 24 hours, unit assumed
Procedure: as §1, §2, §3

[20] = system: EN[…] ATCC 8043; settings: ENTEROCOCCUS FAECIUM ATCC 8043; BHI agar, 35-37 °C for 20 to 24 hours; unit assumed
Procedure: as §1, §2, §3

[21] = system: STAPHYLOCOCCUS AUREUS A-5278; settings: BHI agar, 35-37 °C for 20 to 24 hours, unit assumed
Procedure: as §1, §2, §3

[22] = system: STREPTOCOCCUS PYOGENES EES61; settings: STREPTOCOCCUS PYOGENES EES61; BHI agar, 35-37 °C for 20 to 24 hours; unit assumed
Procedure: as §1, §2, §3

CC[C@H]1OC(=O)[C@H](C)C(=O)[C@H](C)[C@@H](O[C@@H]2O[C@H](C)C[C@H](N(C)C)[C@H]2O)[C@](C)(OC)C[C@@H](C)C2=Nc3cccnc3N3C(=O)O[C@@]1(C)[C@H]3[C@H]2C [Ex 7, Compound of Formula (II): R^1 is methoxy; R^2 is H, R^3 is absent, the double bond is present, B, D and E are H, and Y and Z taken together with the atom to which they are attached form an oxo group]
Antibacterial Activity (MIC's) [1]: > 100 µg/mL | Antibacterial Activity (MIC's) [2]: 0.05 µg/mL | Antibacterial Activity (MIC's) [3]: 0.78 µg/mL | Antibacterial Activity (MIC's) [4]: > 100 µg/mL | Antibacterial Activity (MIC's) [5]: 0.39 µg/mL | Antibacterial Activity (MIC's) [6]: 3.1 µg/mL | Antibacterial Activity (MIC's) [7]: 0.05 µg/mL | Antibacterial Activity (MIC's) [8]: 0.39 µg/mL | Antibacterial Activity (MIC's) [9]: 0.39 µg/mL | Antibacterial Activity (MIC's) [10]: > 100 µg/mL | Antibacterial Activity (MIC's) [11]: 0.39 µg/mL | Antibacterial Activity (MIC's) [12]: 0.39 µg/mL | Antibacterial Activity (MIC's) [13]: 0.39 µg/mL | Antibacterial Activity (MIC's) [14]: 0.05 µg/mL | Antibacterial Activity (MIC's) [15]: 0.39 µg/mL | Antibacterial Activity (MIC's) [16]: 0.39 µg/mL | Antibacterial Activity (MIC's) [17]: > 100 µg/mL | Antibacterial Activity (MIC's) [18]: > 100 µg/mL | Antibacterial Activity (MIC's) [19]: 0.1 µg/mL | Antibacterial Activity (MIC's) [20]: 0.1 µg/mL | Antibacterial Activity (MIC's) [21]: > 100 µg/mL | Antibacterial Activity (MIC's) [22]: 0.05 µg/mL

C=CCO[C@]1(C)C[C@@H](C)C2=Nc3ccccc3N3C(=O)O[C@](C)([C@@H](CC)OC(=O)[C@H](C)C(=O)[C@H](C)[C@H]1O[C@@H]1O[C@H](C)C[C@H](N(C)C)[C@H]1O)[C@H]3[C@H]2C [Ex 8, Compound of Formula (I): R^1 is allyloxy; R^2 is H, R^3 is absent, the double bond is present, A, B, D and E are H, and Y and Z taken together with the atom to which they are attached form an oxo group]
Antibacterial Activity (MIC's) [1]: > 100 µg/mL | Antibacterial Activity (MIC's) [2]: 0.1 µg/mL | Antibacterial Activity (MIC's) [3]: 12.5 µg/mL | Antibacterial Activity (MIC's) [4]: > 100 µg/mL | Antibacterial Activity (MIC's) [5]: 0.78 µg/mL | Antibacterial Activity (MIC's) [6]: 6.2 µg/mL | Antibacterial Activity (MIC's) [7]: 0.78 µg/mL | Antibacterial Activity (MIC's) [8]: 0.78 µg/mL | Antibacterial Activity (MIC's) [9]: 1.56 µg/mL | Antibacterial Activity (MIC's) [10]: > 100 µg/mL | Antibacterial Activity (MIC's) [11]: 0.78 µg/mL | Antibacterial Activity (MIC's) [12]: 1.56 µg/mL | Antibacterial Activity (MIC's) [13]: 0.78 µg/mL | Antibacterial Activity (MIC's) [14]: 0.39 µg/mL | Antibacterial Activity (MIC's) [15]: 0.78 µg/mL | Antibacterial Activity (MIC's) [16]: 0.78 µg/mL | Antibacterial Activity (MIC's) [17]: > 100 µg/mL | Antibacterial Activity (MIC's) [18]: > 100 µg/mL | Antibacterial Activity (MIC's) [19]: 3.1 µg/mL | Antibacterial Activity (MIC's) [20]: 0.78 µg/mL | Antibacterial Activity (MIC's) [21]: > 100 µg/mL | Antibacterial Activity (MIC's) [22]: 0.39 µg/mL
